This passage reports Ki, Kis and IC50 results from ChEMBL document CHEMBL1131802, “Design and synthesis of beta-carboxamido phosphonates as potent inhibitors of imidazole glycerol phosphate dehydratase” (Bioorg Med Chem Lett, 1999).

In general, Ki refers to a measure of affinity in units of concentration, obtained from inhibition or displacement. By IC50 is commonly meant the concentration that gives 50% inhibition. A high value points to weaker potency.

Some results are limits rather than exact numbers.

The target in test [1] is T1, Imidazoleglycerol-phosphate dehydratase (Cryptococcus neoformans var. neoformans B-3501A, UniProt P0CO23). Put plainly: Binding affinity imidazole glycerol phosphate dehydratase (IGPD) obtained from Cryptococcus neoformans.
T1 sequence (P0CO23 whole entry, looked up): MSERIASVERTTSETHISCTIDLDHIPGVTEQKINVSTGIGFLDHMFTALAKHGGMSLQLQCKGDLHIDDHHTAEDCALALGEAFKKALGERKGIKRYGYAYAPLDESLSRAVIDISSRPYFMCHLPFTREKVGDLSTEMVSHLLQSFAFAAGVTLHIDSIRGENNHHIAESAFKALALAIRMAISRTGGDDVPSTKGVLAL
Test [2] deals with Imidazoleglycerol-phosphate dehydratase (Cryptococcus neoformans var. neoformans B-3501A) (UniProt P0CO23). Nature of the test: Kinetic constant for the inhibition of imidazole glycerol phosphate dehydratase (IGPD).
Imidazoleglycerol-phosphate dehydratase (Cryptococcus neoformans var. neoformans B-3501A), sequence (P0CO23 whole entry, looked up): as above
For test [3], the target named is T1, Imidazoleglycerol-phosphate dehydratase. Put plainly: Inhibitory concentration against imidazole glycerol phosphate dehydratase (IGPD) from Cryptococcus neoformans.

`O=C(NC(Cn1cncn1)CP(=O)(O)O)c1c(F)cccc1F` (centres undefined) had a Ki in test [1] of 1150 nM. In test [2], this compound showed a Kis of 5.8 µM. Moreover, the midpoint of inhibition in test [3], the IC50, lay at 4600 nM.
Consider `O=C(CSc1ccccc1)NC(Cn1cncn1)CP(=O)(O)O` (centres undefined), for which, in test [1], the Ki came out at 250 nM. In test [2], the Kis was determined as 1.26 µM. In test [3], this compound gave an IC50 of 920 nM.
`O=C(/C=C/c1ccccc1)NC(Cn1cncn1)CP(=O)(O)O` (centres undefined) had a Ki in test [1] of 4500 nM. Also, the Kis in test [2] came out at 25 µM. The compound also gave an IC50 in test [3] of 21000 nM.
In the case of `CC(=O)NC(Cn1cncn1)CP(=O)(O)O` (centres undefined), the Ki in test [1] amounted to 800 nM. This compound had a Kis in test [2] of 6.1 µM. In test [3], this compound had an IC50 of 3900 nM.
Consider `O=C(CO)NC(Cn1cncn1)CP(=O)(O)O` (centres undefined), for which the Ki in test [1] came out at 230 nM. Further, in test [2], the Kis stood at 1.23 µM. The compound further showed an IC50 in test [3] of 910 nM.
For `O=C(NC(Cn1cncn1)CP(=O)(O)O)c1ccccc1` (centres undefined), in that order: 10000 nM, 100 µM and above 50000 nM.
As to `CNC(=O)C(=O)NC(Cn1cncn1)CP(=O)(O)O` (centres undefined), the 50% inhibitory concentration (IC50) in test [3] is above 50000 nM.
Regarding `O=C(CCC1CCCC1)NC(Cn1cncn1)CP(=O)(O)O` (centres undefined), in test [1], affinity was put at a Ki of 880 nM. This compound also registered a Kis in test [2] of 3.7 µM. The IC50 in test [3] was 3100 nM.
For `NC(Cn1cncn1)CP(=O)(O)O` (centres undefined), the affinity in test [1], expressed as Ki, was 15 nM.
`O=C(CCc1cccc([N+](=O)[O-])c1)NC(Cn1cncn1)CP(=O)(O)O` (centres undefined) gave an IC50 in test [3] of 1500 nM.
For the compound `O=C(NC(Cn1cncn1)CP(=O)(O)O)c1ccco1` (centres undefined), in test [1], the Ki came out at 7500 nM. This compound also came in with a Kis in test [2] of 33 µM. This compound also gave an IC50 in test [3] above 50000 nM.
In the same order, the values of `C/C=C/C(=O)NC(Cn1cncn1)CP(=O)(O)O` (centres undefined) are 1450 nM, 5.6 µM and 4000 nM.
Compound `CCCCc1ccc(C(=O)NC(Cn2cncn2)CP(=O)(O)O)cc1` (centres undefined) yielded a Ki in test [1] of 1300 nM. The Kis in test [2] amounted to 5.9 µM. In test [3], the IC50 stood at 4100 nM.
`O=C(Cc1cccs1)NC(Cn1cncn1)CP(=O)(O)O` (centres undefined) yielded a Ki in test [1] of 560 nM. Besides, the Kis in test [2] worked out at 2.4 µM. In test [3], this compound displayed an IC50 of 3500 nM.
For `COC(=O)CCCC(=O)NC(Cn1cncn1)CP(=O)(O)O` (centres undefined), in that order: 700 nM, 3.95 µM and 2800 nM.
The compound `O=C(CCC(=O)c1ccccc1)NC(Cn1cncn1)CP(=O)(O)O` (centres undefined) had an IC50 in test [3] of 20000 nM. This lies in the double-digit micromolar range.
In test [1], `COCC(=O)NC(Cn1cncn1)CP(=O)(O)O` (centres undefined) yielded a Ki of 2200 nM. The same compound yielded a Kis in test [2] of 17 µM. This compound yielded an IC50 in test [3] of 10000 nM.
For `CCC(=O)NC(Cn1cncn1)CP(=O)(O)O` (centres undefined), in that order: 1200 nM, 9 µM and 6100 nM.
In turn, `O=C(CCc1ccccc1)NC(Cn1cncn1)CP(=O)(O)O` (centres undefined) returned a Ki in test [1] of 270 nM. The compound further returned a Kis in test [2] of 1.14 µM. Also, in test [3], the IC50 came to 960 nM.
For `CC(C)(C)CC(=O)NC(Cn1cncn1)CP(=O)(O)O` (centres undefined), in that order: 1130 nM, 5 µM and 4800 nM.
The compound `O=C(NC(Cn1cncn1)CP(=O)(O)O)c1ccccc1O` (centres undefined) came in with a Ki in test [1] of 3500 nM. In addition, the Kis in test [2] was determined as 22 µM. For the same compound, 16000 nM corresponded to half-maximal inhibition in test [3] (IC50).
On to `CC(C)=CC(=O)NC(Cn1cncn1)CP(=O)(O)O` (centres undefined), for which the affinity in test [1], expressed as Ki, was 1300 nM. The compound further yielded a Kis in test [2] of 5.5 µM. Further, in test [3], the IC50 was determined as 4500 nM.
For the compound `CC(Oc1ccccc1)C(=O)NC(Cn1cncn1)CP(=O)(O)O` (centres undefined), the Ki in test [1] is 230 nM. Also, in test [2], the Kis is 1.22 µM. Further, 1500 nM corresponded to half-maximal inhibition in test [3] (IC50).
For `O=C(COc1ccccc1)NC(Cn1cncn1)CP(=O)(O)O` (centres undefined), in that order: 80 nM, 0.27 µM and 380 nM.
For `O=C(COc1ccc(Cl)cc1)NC(Cn1cncn1)CP(=O)(O)O` (centres undefined), in that order: 550 nM, 2.12 µM and 2000 nM.
`O=P(O)(O)CC(O)Cn1cncn1` (centres undefined): in test [1], affinity was put at a Ki of 0.6 nM.
Turning to `CC1(CCC(=O)NC(Cn2cncn2)CP(=O)(O)O)SCCS1` (centres undefined), in test [3], the IC50 was 800 nM. That is a sub-micromolar value.
`O=C(Cc1ccccc1)NC(Cn1cncn1)CP(=O)(O)O` (centres undefined) gave a Ki in test [1] of 340 nM. For the same compound, the Kis in test [2] amounted to 3.9 µM. In test [3], this compound gave an IC50 of 2700 nM.
In the same order, the values of `O=C(NC(Cn1cncn1)CP(=O)(O)O)C1CC1` (centres undefined) are 4000 nM, 19 µM and 17000 nM.
In the same order, the values of `CCCCCC(=O)NC(Cn1cncn1)CP(=O)(O)O` (centres undefined) are 340 nM, 1.22 µM and 840 nM.
As for `CC1(C)CC(=O)OC1CC(=O)NC(Cn1cncn1)CP(=O)(O)O` (centres undefined), in test [3], it took 2900 nM to reach half-maximal inhibition (IC50).
